Measurements: patent US9260454B2, “Isothiazolopyridine-2-carboxamides and their use as pharmaceuticals” (Sanofi, priority 2011, dated 2016)

Test system: micromass culture of mesenchymal cells
Test: not given
Settings: 30 μM in micromass culture; cited from earlier work

Row | Compound | Xylt2 expression | proteoglycan deposition
1 | O=C(NC(Cc1c[nH]c2ccc(F)cc12)C(=O)NCC1CC(Br)=NO1)OCc1cnc2ccccc2c1 (centres unmarked) [ERW1069] | increase | increase

Molecular target: recombinant human TGM2 (Homo sapiens (Human), UniProt P21980)
Sequence (P21980 whole entry): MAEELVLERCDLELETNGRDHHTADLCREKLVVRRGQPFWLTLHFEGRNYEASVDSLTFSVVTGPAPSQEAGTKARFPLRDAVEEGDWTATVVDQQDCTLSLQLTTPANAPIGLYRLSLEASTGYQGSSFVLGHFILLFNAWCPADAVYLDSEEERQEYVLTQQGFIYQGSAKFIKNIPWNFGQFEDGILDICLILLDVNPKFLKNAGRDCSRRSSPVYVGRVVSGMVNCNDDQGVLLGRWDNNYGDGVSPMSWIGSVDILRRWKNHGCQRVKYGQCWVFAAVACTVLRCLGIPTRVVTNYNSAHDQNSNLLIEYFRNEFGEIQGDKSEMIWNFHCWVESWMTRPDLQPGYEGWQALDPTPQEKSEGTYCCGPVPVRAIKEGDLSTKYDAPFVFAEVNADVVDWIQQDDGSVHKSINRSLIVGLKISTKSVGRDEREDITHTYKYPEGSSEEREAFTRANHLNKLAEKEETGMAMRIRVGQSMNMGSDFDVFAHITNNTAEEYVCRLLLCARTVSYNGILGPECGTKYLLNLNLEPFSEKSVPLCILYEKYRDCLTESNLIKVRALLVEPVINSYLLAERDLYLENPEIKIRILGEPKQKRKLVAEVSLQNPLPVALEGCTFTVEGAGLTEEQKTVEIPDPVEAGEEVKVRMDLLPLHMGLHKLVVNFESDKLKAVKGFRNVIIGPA
Test: Assay for quantification of TGM2 transglutaminase inhibitory activity (fluorescence, H-Abz-APE(CAD-DNP)QEA-OH substrate)
Assay type: biochemical
Settings: recombinant human TGM2 25 μg/ml; substrate 50 μM, glycine methyl ester 5 mM; 15 min preincubation at room temperature; pH 7.5; read-out: IC50 values for inhibition of TGM2
Protocol: a) Assay Method for the Quantification of TGM2 Transglutaminase Inhibitory Activity
The activity of the compounds for inhibition of TGM2 was determined with recombinant human TGM2 (Zedira GmbH, Darmstadt, Germany, Product Nr. T002) and the peptidic compound H-Abz-APE(CAD-DNP)QEA-OH as substrate (Zedira GmbH, Darmstadt, Germany, Product Nr. A102; CAD-DNP is N^ω-2,4-dinitrophenyl-cadaverine, i.e. the carboxylic acid group in the side chain of the respective glutamyl moiety is amidated with the primary amino group of N-(2,4-dinitrophenyl)pentane-1,5-diamine; cf. also K. Oertel et al., Anal. Biochem. 2007, 367: 152-158). For this purpose, 2 μl of a solution of different concentrations of the test compound in dimethyl sulfoxide was added to 28 μl of buffer (50 mM TRIS, 100 mM NaCl, 10 mM CaCl2, pH 7.5) and 10 μl of a TGM2 solution to give a TMG2 test concentration of 25 μg/ml, and the mixture incubated for 15 minutes at room temperature in a 96 half-well microtiter plate. The enzyme reaction was started by the addition of 10 μl of substrate solution containing H-Abz-APE(CAD-DNP)QEA-OH and glycine methyl ester hydrochloride in buffer to give test concentrations of H-Abz-APE(CAD-DNP)QEA-OH of 50 μM and of glycine methyl ester hydrochloride of 5 mM. The time course of the reaction was monitored with excitation at 318 nm and measurement at emission wavelength 418 nm in a microtiter plate reader (SpectraMax M5, Molecular Devices) over 15 minutes. Rates were calculated from the linear part of the curve (generally between 5 and 10 minutes). IC50 values were calculated from the means (duplicates) of a dilution series of the compound, using the software Softmax Pro (Version 4.8, Molecular Devices).

Row | Compound | IC50 [µM]
2 | O=C(N1CCOCC1)n1sc2c(ccc[n+]2[O-])c1=O [Example 5] | 0.27
3 | N#Cc1ccc(N2CCN(C(=O)n3sc4ncccc4c3=O)CC2)cc1 [Example 6] | 1.1
4 | O=C(O)CN1CCN(C(=O)n2sc3ncccc3c2=O)CC1 [Example 8] | 18
5 | O=C(O)CN1CCN(C(=O)n2sc3c(ccc[n+]3[O-])c2=O)CC1 [Example 10] | 12
6 | CC(NC(=O)n1sc2c(ccc[n+]2[O-])c1=O)c1ccc2c(c1)OCCO2 (centres unmarked) [Example 16] | 26
7 | O=C(CCOc1ccccc1)N1CCN(C(=O)n2sc3ncccc3c2=O)CC1 [Example 20] | 0.11
8 | O=C(CCOc1ccccc1)N1CCN(C(=O)n2sc3c(ccc[n+]3[O-])c2=O)CC1 [Example 21] | 0.014
9 | COc1ccc(CNC(=O)n2sc3c(ccc[n+]3[O-])c2=O)cc1OC [Example 24] | 0.37
10 | CC(=O)N1CCN(C(=O)n2sc3ncccc3c2=O)CC1 [Example 26] | 0.34
11 | O=C(C1CC1)N1CCN(C(=O)n2sc3ncccc3c2=O)CC1 [Example 27] | 0.42
12 | O=C(C1CC1)N1CCN(C(=O)n2sc3c(ccc[n+]3[O-])c2=O)CC1 [Example 28] | 0.045
13 | CC(C)C(=O)N1CCN(C(=O)n2sc3c(ccc[n+]3[O-])c2=O)CC1 [Example 29] | 0.062
14 | CCS(=O)(=O)N1CCN(C(=O)n2sc3ncccc3c2=O)CC1 [Example 36] | 0.43
15 | CCS(=O)(=O)N1CCN(C(=O)n2sc3c(ccc[n+]3[O-])c2=O)CC1 [Example 38] | 0.061
16 | CN1CCN(C2CCN(C(=O)n3sc4c(ccc[n+]4[O-])c3=O)CC2)CC1 [Example 40] | 0.34
17 | CNC1CCN(C(=O)n2sc3c(ccc[n+]3[O-])c2=O)CC1 [Example 42] | 0.24
18 | NCC(=O)N1CCN(C(=O)n2sc3c(ccc[n+]3[O-])c2=O)CC1 [Example 44] | 0.12
19 | O=C(N1CCC2(CCCN2)CC1)n1sc2c(ccc[n+]2[O-])c1=O [Example 45] | 4.3

Row | Compound | IC50 [µM]
20 | O=C(N1CCN(c2ccc(N3CCCC3)nn2)CC1)n1sc2c(ccc[n+]2[O-])c1=O [Example 46] | 0.14
21 | O=C([C@@H]1CCCN1)N1CCN(C(=O)n2sc3c(ccc[n+]3[O-])c2=O)CC1 [Example 50] | 2.3
22 | CCNCC(=O)N1CCN(C(=O)n2sc3c(ccc[n+]3[O-])c2=O)CC1 [Example 55] | 2
23 | O=C1CC[C@@H](C(=O)N2CCN(C(=O)n3sc4c(ccc[n+]4[O-])c3=O)CC2)N1 [Example 59] | 1
24 | O=C1NCCN1C1CCN(C(=O)n2sc3c(ccc[n+]3[O-])c2=O)CC1 [Example 62] | 3.1
25 | COc1ccc(C(=O)N2CCN(C(=O)n3sc4ncccc4c3=O)CC2)cc1OC [Example 68] | 0.065
26 | COc1ccc(C(=O)N2CCN(C(=O)n3sc4c(ccc[n+]4[O-])c3=O)CC2)cc1OC [Example 69] | 0.054
27 | CC(=O)N1CCN(C(=O)n2sc3c(ccc[n+]3[O-])c2=O)CC1 [Example 70] | 0.062
28 | O=C(N1CCNCC1)n1sc2c(ccc[n+]2[O-])c1=O [Example 72] | 1.2
29 | O=C(c1ccncc1)N1CCN(C(=O)n2sc3c(ccc[n+]3[O-])c2=O)CC1 [Example 74] | 0.13
30 | CCCC(=O)C1CCN(C(=O)n2sc3c(ccc[n+]3[O-])c2=O)CC1 [Example 78] | 0.12
31 | O=C1CN(C(=O)n2sc3c(ccc[n+]3[O-])c2=O)CCN1 [Example 80] | 0.15
32 | C[C@@H]1CN(C(=O)n2sc3c(ccc[n+]3[O-])c2=O)C[C@H](C)O1 [Example 81] | 2.9
33 | COCCC(=O)N1CCN(C(=O)n2sc3c(ccc[n+]3[O-])c2=O)CC1 [Example 83] | 0.75
34 | NC(=O)N1CCN(C(=O)n2sc3c(ccc[n+]3[O-])c2=O)CC1 [Example 84] | 1.7
35 | O=C(N1CCC(O)CC1)n1sc2c(ccc[n+]2[O-])c1=O [Example 86] | 2.1
36 | O=C(c1ccccn1)N1CCN(C(=O)n2sc3c(ccc[n+]3[O-])c2=O)CC1 [Example 89] | 0.072

Test system: chondrocytes
Test: not given
Settings: cited from earlier work

Row | Compound | active TGFβ1 in chondrocytes
37 | NCCSSCCN [cystamine] | decrease
